One assay has as its system B16. The experiment in a line: Cytotoxicity against mouse B16 cells after 48 hrs by MTT assay. The class given is functional, cell-based. Particulars: B16, 48 h. (In general: Tetrazolium dyes change colour on reduction, which living cells bring about.)
The target in the next assay is Tubulin. Description: Inhibition of tubulin (unknown origin) assessed as inhibition of GTP-induced polymerization incubated for 45 mins prior to GTP-addition measured after 2 hrs by DAPI-staining based fluorimetric analysis. The class given is protein-complex assay, Homo sapiens.
Assay [1] can be described thus: Antivascular activity against human EAhy926 cells assessed as rounding up morphology after 2 hrs by microscopic analysis. Particulars: EA.hy 926, 2 h, read-out: MEC. It counts as functional.

The IC50 is the concentration that gives 50% inhibition. On to `COc1ccc([C@H]2C[C@H]2c2cc(OC)c(OC)c(OC)c2)cc1O`, for which the IC50 in the assay on B16 is 0.52 µM; at Tubulin it was 6.8 µM. In addition, the minimal effective concentration in assay [1] was 0.5 µM.
In the same order, the values of `COc1cc(C2CC2/C=C/c2ccccc2)cc(OC)c1OC` (racemic) are 0.62 µM, 1.8 µM and 0.5 µM.
As for `COc1ccc(C2CC2c2cc(OC)c(OC)c(OC)c2)cc1O` (racemic), the IC50 worked out at 0.32 µM in the assay with B16 and 1 µM at Tubulin. The minimal effective concentration in assay [1] amounted to 0.12 µM.
For `COc1cc([C@H]2C[C@H]2/C=C/c2ccccc2)cc(OC)c1OC`, in that order: 2.74 µM, 4.5 µM and 3.13 µM.
Regarding `COc1ccc(C2CC2c2cc(OC)c(OC)c(OC)c2)cc1N` (racemic), the results for the IC50 in the assay on B16 and at Tubulin were 0.29 µM and 2.8 µM, respectively. The minimal effective concentration in assay [1] was found to be 0.12 µM.
In the same order, the values of `COc1cc([C@@H]2C[C@@H]2/C=C/c2ccccc2)cc(OC)c1OC` are 0.57 µM, 1.3 µM and 0.5 µM.
For `COc1ccc(C2CC2c2cc(OC)c(OC)c(OC)c2)cc1[N+](=O)[O-]` (racemic), in that order: 15.4 µM, 26.3 µM and 3.13 µM.
`COc1ccc(/C=C\c2cc(OC)c(OC)c(OC)c2)cc1O` [COMBRETASTATIN A4] showed an IC50 in the assay with B16 of 0.003 µM. In addition, the minimal effective concentration in assay [1] came to 0.006 µM.
For the compound `COc1ccc([C@@H]2C[C@@H]2c2cc(OC)c(OC)c(OC)c2)cc1O`, the IC50 in the assay on B16 and on Tubulin was 0.3 µM each time. Moreover, the minimal effective concentration in assay [1] turned out to be 0.12 µM.
